This is an account of results in US12479818B2, “Treatment of fibrosis with IRE1 small molecule inhibitors” (Cornell University, priority 2019, dated 2025).

Bounds are passed on as bounds.

The target in the experiment is IRE1a (Homo sapiens, UniProt O75460). The experiment can be described thus: IRE1a Endoribonuclease Nanoluciferase Assay (XBP1 luciferase reporter in 293T cells). In kind it is cell-based. On the set-up: endogenous in cells; host or cells: 293T. The settings on record: XBP1 nanoluciferase reporter in 293T cells, ER stressor; tested as the salt named. On the procedure: Compounds disclosed herein were assessed for disruption of IRE1 signaling using a IRE1a Endoribonuclease Nanoluciferase Assay. […] About 24 hours later, the cells were transfected with Effectene. In a 15 mL tube, the following was added: 2 ug XBP1 luciferase reporter plasmid (PGK-Luc2-P2A-XBP1u-Nanoluciferase-PEST); 300 ul EC buffer; and 16 ul Enhancer, followed by incubation at room temp for 5 minutes. […] 2.6 mL cDMEM media was added. Old media was aspirated from the cells, followed by addition of 7 mL fresh media. Full transfection mixture was added dropwise to cells. Cells were incubated for 6 hours, followed by trypsinization, centrifugation and resuspension in 11 mL fresh cDMEM media. 100 μL of cells were plated per a well in a 96 well plate. A day later, ER stressors of choice +/− inhibitors were added. To harvest, media was aspirated from cells completely, then 50 uL 1× passive lysis buffer (Promega: E1941) was added per well and put on shaker (300 rpm) for 30 minutes at room temperature. […] 15 uL OneGlo (nanoluciferase kit, Promega N1630) was added. Plates were spun down, placed on shaker (300 rpm) for 10 minutes. Plates were read on luminometer, 1000 ms integration time per well. 15 uL Stop and Glo (nanoluciferase kit) was added. Plates were spun down, placed on shaker (300 rpm) for 10 minutes. Plates were read on luminometer, 1000 ms second integration time per well.
(In general: In a reporter assay the amount or activity of a reporter protein is the signal.)

IRE1a, sequence (O75460 19-977): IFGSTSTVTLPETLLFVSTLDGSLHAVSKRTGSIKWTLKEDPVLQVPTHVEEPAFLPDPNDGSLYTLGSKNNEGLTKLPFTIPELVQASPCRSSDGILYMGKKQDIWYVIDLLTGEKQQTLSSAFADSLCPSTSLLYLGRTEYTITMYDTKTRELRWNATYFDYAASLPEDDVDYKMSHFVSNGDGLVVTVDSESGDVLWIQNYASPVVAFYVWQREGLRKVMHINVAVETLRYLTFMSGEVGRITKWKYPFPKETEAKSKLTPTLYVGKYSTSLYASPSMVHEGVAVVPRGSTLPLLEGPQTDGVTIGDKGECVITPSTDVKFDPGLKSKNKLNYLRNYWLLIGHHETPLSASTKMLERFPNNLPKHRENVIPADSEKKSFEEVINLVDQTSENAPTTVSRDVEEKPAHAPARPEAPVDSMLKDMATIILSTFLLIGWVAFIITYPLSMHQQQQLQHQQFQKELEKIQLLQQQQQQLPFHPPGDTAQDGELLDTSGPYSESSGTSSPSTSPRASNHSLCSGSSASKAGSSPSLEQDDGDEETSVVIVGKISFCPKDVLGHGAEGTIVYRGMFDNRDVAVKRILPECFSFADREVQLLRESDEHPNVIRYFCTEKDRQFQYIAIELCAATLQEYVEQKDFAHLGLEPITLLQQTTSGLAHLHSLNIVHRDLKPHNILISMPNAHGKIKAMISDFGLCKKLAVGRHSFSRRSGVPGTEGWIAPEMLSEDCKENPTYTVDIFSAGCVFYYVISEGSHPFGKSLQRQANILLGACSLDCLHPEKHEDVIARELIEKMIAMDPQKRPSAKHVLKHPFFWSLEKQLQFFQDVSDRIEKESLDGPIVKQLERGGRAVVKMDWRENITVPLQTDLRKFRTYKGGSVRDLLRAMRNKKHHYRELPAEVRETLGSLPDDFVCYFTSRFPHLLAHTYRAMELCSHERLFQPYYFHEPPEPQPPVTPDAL

Consider `CCc1cc(-c2ccc(NS(=O)(=O)c3ccccc3Cl)c(F)c2)cc2cnc(N[C@H]3CC4C[C@H](N)CC4C3)nc12` (stereo partly shown) [Compound 83, N-(4-(2-(((2r,5r)-5-aminoocta-hydropentalen-2-yl)amino)-8-ethylquinazolin-6-yl)-2-fluorophenyl)-2-chlorobenzene-sulfonamide], for which the EC50 lay within 50 to 100 nM. Take `CCc1cc(-c2ccc(NS(=O)(=O)c3ccccc3Cl)c(F)c2)cc2cnc(N[C@H]3CC4C[C@@H](N)CC4C3)nc12` (stereo partly shown) [Compound 84, N-(4-(2-(((2s,5s)-5-aminoocta-hydropentalen-2-yl)amino)-8-ethylquinazolin-6-yl)-2-fluorophenyl)-2-chlorobenzene-sulfonamide]: the EC50 lay within 5 to 50 nM. For the compound `N[C@H]1CC2C[C@@H](Nc3ncc4cc(-c5ccc(NS(=O)(=O)c6ccccc6Cl)c(F)c5)ccc4n3)CC2C1` (stereo partly shown) [Compound 85, N-(4-(2-(((2s,5s)-5-aminoocta-hydropentalen-2-yl)amino)quinazolin-6-yl)-2-fluorophenyl)-2-chlorobenzene-sulfonamide], the EC50 was in the range of 100 to 10000 nM.

With `NC12CCC(Nc3ncc4cc(-c5ccc(NS(=O)(=O)c6ccccc6Cl)c(F)c5)ccc4n3)(CC1)C2` [Compound 86, N-(4-(2-((4-aminobicyclo[2.2. 1]heptan-1-yl)amino)quinazolin-6-yl)-2-fluorophenyl)-2-chlorobenzene-sulfonamide], the EC50 was in the range of 50 to 100 nM. In the case of `CCc1cc(-c2ccc(NS(=O)(=O)c3ccccc3Cl)c(F)c2)cc2cnc(NC34CCC(N)(CC3)CC4)nc12` [Compound 87, N-(4-(2-((4-aminobicyclo[2.2. 2]octan-1-yl)-amino)-8-ethylquinazolin-6-yl)-2-fluorophenyl)-2-chlorobenzene-sulfonamide], the EC50 is < 5 nM. For `CCc1cc(-c2ccc(NS(=O)(=O)c3ccccc3Cl)c(F)c2)cc2cnc(N[C@H]3CC[C@H](N4CCCC4)CC3)nc12` [Compound 88, 2-chloro-N-(4-(8-ethyl-2-(((lr,4r)-4-(pyrrolidin-1-yl)cyclohexyl)amino)quinazolin-6-yl)-2-fluorophenyl) benzene-sulfonamide] the value was < 5 nM.

As to `N[C@H]1CC[C@H](Nc2ncc3cc(-c4nnc(NS(=O)(=O)c5ccccc5Cl)s4)ccc3n2)CC1` [Compound 89, N-(5-(2-(((lr,4r)-4-aminocyclohexyl)amino)quinazolin-6-yl)-1,3,4-thiadiazol-2-yl)-2-chlorobenzene-sulfonamide], the EC50 was in the range of 100 to 10000 nM. For the compound `Cc1cc2nc(N[C@H]3CC[C@H](N)CC3)ncc2cc1-c1ccc(NS(=O)(=O)c2ccccc2Cl)c(F)c1` [Compound 90, N-(4-(2-(((1r,4r)-4-aminocyclohexyl)amino)-7-methylquinazolin-6-yl)-2-fluorophenyl)-2-chlorobenzene-sulfonamide], the EC50 is 5 to 50 nM. For `CCc1cc(-c2cnc(NS(=O)(=O)c3ccccc3Cl)cc2OC)cc2cnc(N[C@H]3CC[C@H](N)CC3)nc12` [Compound 92, N-(5-(2-(((1r,4r)-4-aminocyclohexyl)amino)-8-ethylquinazolin-6-yl)-4-methoxypyridin-2-yl)-2-chlorobenzene-sulfonamide], the EC50 was 100 to 10000 nM. On to `CCc1cc(-c2cnc(NS(=O)(=O)c3ccccc3Cl)c(F)c2)cc2cnc(N[C@H]3CC[C@H](N(C)C)CC3)nc12` [Compound 95, 2-chloro-N-(5-(2-(((1r,4r)-4-(dimethylamino)cyclohexyl)amino)-8-ethylquinazolin-6-yl)-3-fluoropyridin-2-yl)benzenesulfonamide], for which the EC50 was < 5 nM. Turning to `CCc1cc(-c2cc(F)c(NS(=O)(=O)c3ccccc3Cl)nc2C)cc2cnc(N[C@H]3CC[C@H](N(C)C)CC3)nc12` [Compound 97, 2-chloro-N-(5-(2-(((1r,4r)-4-(dimethylamino)cyclohexyl)amino)-8-ethylquinazolin-6-yl)-3-fluoro-6-methylpyridin-2-yl)benzenesulfonamide], the EC50 was < 5 nM. For `CCc1cc(-c2ncc(NS(=O)(=O)c3ccccc3Cl)nc2OC)cc2cnc(N[C@H]3CC[C@H](N)CC3)nc12` [Compound 98, N-(5-(2-(((1r,4)-4-aminocyclohexyl)amino)-8-ethylquinazolin-6-yl)-6-methoxypyrazin-2-yl)-2-chlorobenzenesulfonamide] the value was < 5 nM; for `CCc1cc(-c2ccc(NS(=O)(=O)c3ccccc3Cl)nc2OC)cc2cnc(N[C@H]3CC[C@H](N(C)C)CC3)nc12` [Compound 99, 2-chloro-N-(5-(2-(((1r,4r)-4-(dimethylamino)cyclohexyl)amino)-8-ethylquinazolin-6-yl)-6-methoxypyridin-2-yl)benzenesulfonamide], < 5 nM. For the compound `COc1nc(NS(=O)(=O)c2ccccc2Cl)ccc1-c1cc2cnc(N[C@H]3CC[C@H](N(C)C)CC3)nc2cc1C` [Compound 108, 2-chloro-N-(5-(2-(((1r,4r)-4-(dimethylamino)cyclohexyl)amino)-7-methylquinazolin-6-yl)-6-methoxypyridin-2-yl)benzenesulfonamide], the EC50 was < 5 nM. For `CCc1cc(-c2ccc(NS(=O)(=O)c3ccccc3Cl)nc2OC)cc2cnc(N[C@H]3CC[C@H](NC)CC3)nc12` [Compound 116, 2-chloro-N-(5-(8-ethyl-2-(((1r,4r)-4-(methylamino)cyclohexyl)amino)quinazolin-6-yl)-6-methoxypyridin-2-yl)benzenesulfonamide] the value was < 5 nM. Take `CCc1nc(NS(=O)(=O)c2ccccc2Cl)ccc1-c1cc(CC)c2nc(N[C@H]3CC[C@H](N(C)C)CC3)ncc2c1` [Compound 117, 2-chloro-N-(5-(2-(((1r,4r)-4-(dimethylamino)cyclohexyl)amino)-8-ethylquinazolin-6-yl)-6-ethylpyridin-2-yl)benzenesulfonamide]: the EC50 was < 5 nM.

As to `CCc1cc(-c2ccc(NS(=O)(=O)c3ccccc3C)nc2OC)cc2cnc(NC3CCC(NC)CC3)nc12` (stereo not shown) [Compound 118, N-(5-(8-ethyl-2-(((1r,4r)-4-(methylamino)cyclohexyl)amino)quinazolin-6-yl)-6-methoxypyridin-2-yl)-2-methylbenzenesulfonamide], the EC50 is < 5 nM. With `CCc1cc(-c2ccc(NS(=O)(=O)c3ccccc3C)nc2OC)cc2cnc(N[C@H]3CC[C@H](N(C)C)CC3)nc12` [Compound 119, N-(5-(2-(((1r,4r)-4-(dimethylamino)cyclohexyl)amino)-8-ethylquinazolin-6-yl)-6-methoxypyridin-2-yl)-2-methylbenzenesulfonamide], the EC50 was < 5 nM. For the compound `CCc1cc(-c2ccc(NS(=O)(=O)c3ccccc3Cl)nc2C)cc2cnc(N[C@H]3CC[C@H](NC)CC3)nc12` [Compound 122, 2-chloro-N-(5-(8-ethyl-2-(((1r,4r)-4-(methylamino)cyclohexyl)amino)quinazolin-6-yl)-6-methylpyridin-2-yl)benzenesulfonamide], the EC50 was < 5 nM. On to `COc1nc(NS(=O)(=O)c2ccccc2Cl)ccc1-c1cc(C(C)(F)F)c2nc(N[C@H]3CC[C@H](N(C)C)CC3)ncc2c1` [Compound 124, 2-chloro-N-(5-(8-(1,1-difluoroethyl)-2-(((1r,4r)-4-(dimethylamino)cyclohexyl)amino)quinazolin-6-yl)-6-methoxypyridin-2-yl)benzenesulfonamide], for which the EC50 was < 5 nM. With `CCc1cc(-c2ccc(NS(=O)(=O)c3ccccc3Cl)nc2C)cc2cnc(NC3CCC(N(C)CC)CC3)nc12` (stereo not shown) [Compound 125, 2-chloro-N-(5-(8-ethyl-2-(((1r,4r)-4-(ethyl(methyl)amino)cyclohexyl)amino)quinazolin-6-yl)-6-methylpyridin-2-yl)benzenesulfonamide], the EC50 is < 5 nM. For `CCc1cc(-c2cc(F)c(NS(=O)(=O)c3ccccc3Cl)nc2OC)cc2cnc(NC3CCC(NC)CC3)nc12` (stereo not shown) [Compound 127, 2-chloro-N-(5-(8-ethyl-2-(((1r,4r)-4-(methylamino)cyclohexyl)amino)quinazolin-6-yl)-3-fluoro-6-methoxypyridin-2-yl)benzenesulfonamide], the EC50 was < 5 nM. On to `CCc1cc(-c2cc(F)c(NS(=O)(=O)c3ccccc3Cl)nc2OC)cc2cnc(N[C@H]3CC[C@H](N(C)C)CC3)nc12` [Compound 128, 2-chloro-N-(5-(2-(((1r,4r)-4-(dimethylamino)cyclohexyl)amino)-8-ethylquinazolin-6-yl)-3-fluoro-6-methoxypyridin-2-yl)benzenesulfonamide], for which the EC50 was < 5 nM. For `CCc1cc(-c2ccc(NS(=O)(=O)c3ccccc3Cl)nc2C)cc2cnc(N[C@H]3CC[C@H](N(C)CC4CCC4)CC3)nc12` [Compound 130, 2-chloro-N-(5-(2-(((1r,4r)-4-((cyclobutylmethyl)(methyl)amino)cyclohexyl)amino)-8-ethylquinazolin-6-yl)-6-methylpyridin-2-yl)benzenesulfonamide] the value was < 5 nM. For `Cc1nc(NS(=O)(=O)c2ccccc2Cl)ccc1-c1cc(C(C)(F)F)c2nc(N[C@H]3CC[C@H](N(C)C)CC3)ncc2c1` [Compound 131, 2-chloro-N-(5-(8-(1,1-difluoroethyl)-2-(((1r,4r)-4-(dimethylamino)cyclohexyl)amino)quinazolin-6-yl)-6-methylpyridin-2-yl)benzenesulfonamide], the EC50 is < 5 nM.

In general, EC50 refers to the concentration that produces a half-maximal response.
